Data on five compounds can be found in patent US20030129204A1, “Vaccines against helminthic parasites” (priority 1994, published 2003).

Where two headings read alike, the source gives them in different places. Where a SMILES comes first, the peptide text is derived from it. [ ]: non-standard residue; d: D form. The star is where a group is joined. Sta = CC(C)C[C@H](N)[C@@H](O)CC(=O)O; Isovaleryl = CC(C)CC(=O)*

The test system of experiment [1] is TSBP proteinases. The experiment is described as follows: Gelatin-substrate gel analysis of TSBP proteinases with inhibitors (O. circumcincta). The experiment is classed as biochemical. The procedure: (§1) TSBP were fractionated by non-reducing SDS-PAGE in 7.5% gel slabs containing 0.1% gelatin. The electrode buffer (Laemmli, 1977) was chilled on ice prior to use. After electrophoresis, SDS was eluted from the gel by extensive washing with 2.5% Triton X-100 for 30 minutes. Gel slabs were incubated overnight at 37° C. in 0.1M acetate buffer pH 5, 2 mM with respect to DTT or 0.1M Tris, pH 8.5. For some experiments TSBP were incubated with proteinase inhibitors prior to electrophoresis and inhibitors were also included in the incubation buffer at the final concentrations indicated above. Proteinases were visualised by Coomassie blue counter-staining.
Proteinase activity associated with TSBP was monitored using gelatin-substrate gel analysis as described in Example 2 (paragraph (b)) to enable the characterisation of individual proteinases.

Experiment [2] has as its system TSBP proteinases. The experiment is classed as biochemical, H. contortus. The conditions noted are these: for proteolysis reduced in the presence of inhibitor (percent activity lost): pH 8.5. On the procedure:
TSBP (2 μg protein in 10 μl) were mixed with 1OO μl sterile buffer (0.1M acetate, pH5) and 20 μl azocasein (1 mg/ml) in the same buffet. The reaction mixture was supplemented with penicillin (500 iu/ml) and streptomycin (5 mg/ml), vortexed briefly and then incubated overnight at 37° C. Undigested protein was precipitated by the addition of 1M perchloric acid (13O μl) and incubation on ice for 30 minutes. Following centrifugation at 11,000 g for 5 minutes the 0D405 of the resulting supernatant was determined. Blank reactions, containing sterile water instead of TSBP, were run in parallel. The optimal pH for enzyme activity was determined in a series of reactions using buffers over the pH range 3 to 10.
The effects of various proteinase inhibitors on TSBP proteinases were monitored by incubating TSBP with buffer supplemented with inhibitor for 30 minutes prior to addition of azocasein and antibiotics. Inhibitors tested and the final reaction concentrations were phenylmethanesulphonylfluoride (PMSF, 1.0 mM), L-transepoxysuccinyl-L-leucylamido-(4-guanidino)-butane (E64, 100 μM), ethylenediaminetetraacetic-acid (EDTA, 1.0 mM) and pepstatin (10 μM).

Experiment [3] concerns TSBP proteinases. The experiment is described as follows: Gelatin-substrate gel analysis of TSBP proteinases with inhibitors (H. contortus). The experiment is classed as biochemical. The conditions noted are these: for 70 kDa proteinase activity / 88 kDa proteinase activity: pH 8.5, PMSF 1.0 mM or EDTA 1.0 mM. The procedure: as §1
The mark [4] stands for this setting: pH 5, azocasein, PMSF 1.0 mM, EDTA 1.0 mM, pepstatin 10 μM.

On to `c1cnc2c(c1)ccc1cccnc12` [1,10 Phe], for which the “97 kDa protease” value in the experiment with TSBP proteinases [1] (pH 8.5) is given as “inhibited”.
For the compound `CC(C)C[C@H](NC(=O)[C@H]1O[C@@H]1C(=O)O)C(=O)NCCCCN=C(N)N` [E64, L-transepoxysuccinyl-L-leucylamido-(4-guanidino)-butane], the “TSBP proteinase activity in the presence of inhibitor” value with TSBP proteinases [2] (pH 5, azocasein, E64 100 μM) is on record as “eliminated”. In the experiment with TSBP proteinases [3] (pH 5, E64 100 μM), the “zones of proteolysis at 37-38, 52, 70 and 100 kDa” value was “abolished”. The “zones of proteolysis at 40, 50 and 70 kDa and stack/separating gel interface” value with TSBP proteinases [1] (pH 5) is “completely inhibited”.
As to `O=C(O)CN(CCN(CC(=O)O)CC(=O)O)CC(=O)O` [EDTA, ethylenediaminetetraacetic-acid], in the experiment on TSBP proteinases [2] (pH 5), the “percent activity lost in comparison to a control preparation in the absence of the inhibitor” value (“percent activity lost … of the inhibitor” for short) is recorded as 11%. For the same compound, the “proteolysis reduced in the presence of inhibitor (percent activity lost)” value with TSBP proteinases [2] stood at 43%. Besides, in the experiment on TSBP proteinases [3], the “70 kDa proteinase activity” value is given as “markedly reduced” and the “88 kDa proteinase activity” value is on record as “completely inhibited”.
Consider `O=S(=O)(F)Cc1ccccc1` [PMSF, phenylmethanesulphonylfluoride], for which, in the experiment with TSBP proteinases [2] (setting [4]), the “percent activity lost … of the inhibitor” value was found to be 28%. Moreover, the “proteolysis reduced in the presence of inhibitor (percent activity lost)” value in the experiment with TSBP proteinases [2] (azocasein, PMSF 1.0 mM, EDTA 1.0 mM) was determined as 52%. Besides, in the experiment on TSBP proteinases [3], the “70 kDa proteinase activity” value is given as “markedly reduced” and the “88 kDa proteinase activity” value is on record as “completely inhibited”. In the experiment with TSBP proteinases [1] (pH 8.5), the “85 kDa doublet proteolysis” value is listed as “inhibited” and the “97 kDa protease” value is given as “inhibited”.
With `CC(C)CC(=O)N[C@H](C(=O)N[C@H](C(=O)N[C@@H](CC(C)C)[C@@H](O)CC(=O)N[C@@H](C)C(=O)N[C@@H](CC(C)C)[C@@H](O)CC(=O)O)C(C)C)C(C)C` [Pepstatin, pepstatin] (Isovaleryl-VV[Sta]A[Sta]-OH), in the experiment on TSBP proteinases [2] (setting [4]), the “percent activity lost … of the inhibitor” value is on record as 6%.
